Measured values from ChEMBL document CHEMBL1201862, “PubChem BioAssay data set” (2004).
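Five compound concentrations were applied to cells in 96-well plates for 48 hours; endpoints were derived by simple linear interpolation of the resulting dose-response curve. GI50 = concentration required for 50% inhibition of growth.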 The source made the active and inactive calls. No stated cut-off is given here; in the data, active = GI50 up to about 1.1 µM and inactive = higher.

Columns and labels:
Test in all cases: DTP human tumour cell line panel, 48 h
M14 = tested on: M14
PC-3 = tested on: PC-3
MDA-MB-435 = tested on: MDA-MB-435
NCI-H522 = tested on: NCI-H522
SK-MEL-28 = tested on: SK-MEL-28
DU-145 = tested on: DU-145
RXF 393 = tested on: RXF 393
SNB-19 = tested on: SNB-19
MCF7 = tested on: MCF7
OVCAR-3 = tested on: OVCAR-3
CAKI-1 = tested on: CAKI-1
SF-295 = tested on: SF-295
NCI-H23 = tested on: NCI-H23
A498 = tested on: A498
HOP-92 = tested on: HOP-92
NCI/ADR-RES = tested on: NCI/ADR-RES
OVCAR-4 = tested on: OVCAR-4
HCT-15 = tested on: HCT-15
HT-29 = tested on: HT-29
NCI-H460 = tested on: NCI-H460

Compound: COc1cc2c(OC)c(c1)CCCC1=CC(=O)C=C(CCC2)C1=O
- GI50 (M14): 26.7 µM (inactive)
- GI50 (PC-3): 28.6 µM (inactive)
- GI50 (MDA-MB-435): 23.8 µM (inactive)
- GI50 (NCI-H522): 21 µM (inactive)
- GI50 (SK-MEL-28): 54.2 µM (inactive)
- GI50 (DU-145): > 68.4 µM (inactive)
- GI50 (RXF 393): 26.7 µM (inactive)
- GI50 (SNB-19): 29.4 µM (inactive)
- GI50 (MCF7): 39 µM (inactive)
- GI50 (OVCAR-3): 22.6 µM (inactive)
- GI50 (CAKI-1): > 100 µM (inactive)
- GI50 (SF-295): 50.2 µM (inactive)
- GI50 (NCI-H23): 50.2 µM (inactive)
- GI50 (A498): > 100 µM (inactive)
- GI50 (HOP-92): 5.6 µM (inactive)
- GI50 (NCI/ADR-RES): 32 µM (inactive)
- GI50 (OVCAR-4): 17.2 µM (inactive)
- GI50 (HCT-15): 33.6 µM
- GI50 (HT-29): 44.9 µM (inactive)
- GI50 (NCI-H460): 41.9 µM (inactive)

Compound: COc1cc(OCc2ccc3nc(OC)c(OC)nc3c2)cc(OC)c1OC
- GI50 (M14): > 10 µM (inactive)
- GI50 (PC-3): > 3.08 µM (inactive)
- GI50 (MDA-MB-435): > 10 µM (inactive)
- GI50 (NCI-H522): > 10 µM (inactive)
- GI50 (SK-MEL-28): > 10 µM (inactive)
- GI50 (DU-145): > 10 µM (inactive)
- GI50 (RXF 393): > 10 µM (inactive)
- GI50 (SNB-19): > 10 µM (inactive)
- GI50 (MCF7): > 10 µM (inactive)
- GI50 (OVCAR-3): > 10 µM (inactive)
- GI50 (CAKI-1): > 10 µM (inactive)
- GI50 (SF-295): > 10 µM (inactive)
- GI50 (NCI-H23): > 10 µM (inactive)
- GI50 (A498): > 10 µM (inactive)
- GI50 (HOP-92): 7.18 µM (inactive)
- GI50 (NCI/ADR-RES): > 10 µM (inactive)
- GI50 (OVCAR-4): > 8 µM (inactive)
- GI50 (HCT-15): > 10 µM
- GI50 (HT-29): > 10 µM (inactive)
- GI50 (NCI-H460): > 10 µM (inactive)

Compound: CNC1C(O)CC(OC2C/C=C(\C)C/C(C)=C/C=C/CCC(C)CNC(=O)/C=C/C=C/C2C)OC1C (stereo not given)
- GI50 (M14): 0.24 µM (active)
- GI50 (PC-3): 1.06 µM (active)
- GI50 (MDA-MB-435): 0.377 µM (active)
- GI50 (NCI-H522): 0.973 µM (active)
- GI50 (SK-MEL-28): 0.667 µM (active)
- GI50 (DU-145): 0.719 µM (active)
- GI50 (RXF 393): 1.08 µM (active)
- GI50 (SNB-19): 2.84 µM (inactive)
- GI50 (MCF7): 0.782 µM (active)
- GI50 (OVCAR-3): 0.986 µM (active)
- GI50 (CAKI-1): 0.877 µM (active)
- GI50 (SF-295): 0.25 µM (active)
- GI50 (NCI-H23): 0.863 µM (active)
- GI50 (A498): 1.72 µM (inactive)
- GI50 (HOP-92): 0.451 µM (active)
- GI50 (NCI/ADR-RES): 0.718 µM (active)
- GI50 (OVCAR-4): 0.303 µM (active)
- GI50 (HCT-15): 0.202 µM
- GI50 (HT-29): 0.224 µM (active)
- GI50 (NCI-H460): 0.173 µM (active)

Compound: Cc1ccc2ccc(O)cc2c1
- GI50 (M14): 46.5 µM (inactive)
- GI50 (PC-3): 21.1 µM (inactive)
- GI50 (MDA-MB-435): 19 µM (inactive)
- GI50 (NCI-H522): 19.9 µM (inactive)
- GI50 (SK-MEL-28): > 100 µM (inactive)
- GI50 (DU-145): 91.6 µM (inactive)
- GI50 (RXF 393): 44.9 µM (inactive)
- GI50 (SNB-19): > 100 µM (inactive)
- GI50 (MCF7): 31.2 µM (inactive)
- GI50 (OVCAR-3): 10.2 µM (inactive)
- GI50 (CAKI-1): 38.1 µM (inactive)
- GI50 (SF-295): 39.4 µM (inactive)
- GI50 (NCI-H23): 37.8 µM (inactive)
- GI50 (A498): 37.2 µM (inactive)
- GI50 (HOP-92): 24.9 µM (inactive)
- GI50 (NCI/ADR-RES): 24.8 µM (inactive)
- GI50 (OVCAR-4): 20.9 µM (inactive)
- GI50 (HCT-15): 35.6 µM
- GI50 (HT-29): 53.6 µM (inactive)
- GI50 (NCI-H460): 89.1 µM (inactive)

Compound: CCN(CC)C(=S)/N=C(\SC(=S)N(CC)CC)c1ccccc1
- GI50 (M14): 37.5 µM (inactive)
- GI50 (PC-3): 26.9 µM (inactive)
- GI50 (MDA-MB-435): > 59 µM (inactive)
- GI50 (NCI-H522): 0.119 µM (active)
- GI50 (SK-MEL-28): 57 µM (inactive)
- GI50 (DU-145): 27.9 µM (inactive)
- GI50 (RXF 393): > 49.3 µM (inactive)
- GI50 (SNB-19): > 94.8 µM (inactive)
- GI50 (MCF7): 3.6 µM (inactive)
- GI50 (OVCAR-3): 28.2 µM (inactive)
- GI50 (CAKI-1): 26.9 µM (inactive)
- GI50 (SF-295): 42.6 µM (inactive)
- GI50 (NCI-H23): 36.9 µM (inactive)
- GI50 (A498): > 95.3 µM (inactive)
- GI50 (HOP-92): > 100 µM (inactive)
- GI50 (NCI/ADR-RES): 35.5 µM (inactive)
- GI50 (OVCAR-4): 27.3 µM (inactive)
- GI50 (HCT-15): 27.7 µM
- GI50 (HT-29): 0.392 µM (active)
- GI50 (NCI-H460): 6.1 µM (inactive)

Compound: O=[N+]([O-])c1ccc(N/N=C/c2ccc(OCCCCCCCCCCCO)cc2)c([N+](=O)[O-])c1
- GI50 (M14): 1.39 µM (inactive)
- GI50 (PC-3): 2.45 µM (inactive)
- GI50 (MDA-MB-435): 2.48 µM (inactive)
- GI50 (NCI-H522): 2.35 µM (inactive)
- GI50 (SK-MEL-28): 4 µM (inactive)
- GI50 (DU-145): 19.7 µM (inactive)
- GI50 (RXF 393): 2.07 µM (inactive)
- GI50 (SNB-19): 6.12 µM (inactive)
- GI50 (MCF7): 6.05 µM (inactive)
- GI50 (OVCAR-3): 30.3 µM (inactive)
- GI50 (CAKI-1): 3.34 µM (inactive)
- GI50 (SF-295): 3.24 µM (inactive)
- GI50 (NCI-H23): 14.4 µM (inactive)
- GI50 (A498): 36 µM (inactive)
- GI50 (HOP-92): 4.82 µM (inactive)
- GI50 (NCI/ADR-RES): 2.73 µM (inactive)
- GI50 (OVCAR-4): 4.13 µM (inactive)
- GI50 (HCT-15): 9.12 µM
- GI50 (HT-29): 1.48 µM (inactive)
- GI50 (NCI-H460): 2.5 µM (inactive)
